From ChEMBL document CHEMBL1201862, “PubChem BioAssay data set” (2004)
Calls of active or inactive are those of the source.

How the values were obtained:
[1] = biological target: T1, Acyl-homoserine lactone acylase PvdQ (Pseudomonas aeruginosa (strain LESB58), UniProt Q9I194); experiment: PvdQ acylase enzyme activity blockers – biochemical, fluorescence, plate reader and imaging, cherry-picks, dose response (AID 493231)
T1 sequence (Q9I194 whole entry): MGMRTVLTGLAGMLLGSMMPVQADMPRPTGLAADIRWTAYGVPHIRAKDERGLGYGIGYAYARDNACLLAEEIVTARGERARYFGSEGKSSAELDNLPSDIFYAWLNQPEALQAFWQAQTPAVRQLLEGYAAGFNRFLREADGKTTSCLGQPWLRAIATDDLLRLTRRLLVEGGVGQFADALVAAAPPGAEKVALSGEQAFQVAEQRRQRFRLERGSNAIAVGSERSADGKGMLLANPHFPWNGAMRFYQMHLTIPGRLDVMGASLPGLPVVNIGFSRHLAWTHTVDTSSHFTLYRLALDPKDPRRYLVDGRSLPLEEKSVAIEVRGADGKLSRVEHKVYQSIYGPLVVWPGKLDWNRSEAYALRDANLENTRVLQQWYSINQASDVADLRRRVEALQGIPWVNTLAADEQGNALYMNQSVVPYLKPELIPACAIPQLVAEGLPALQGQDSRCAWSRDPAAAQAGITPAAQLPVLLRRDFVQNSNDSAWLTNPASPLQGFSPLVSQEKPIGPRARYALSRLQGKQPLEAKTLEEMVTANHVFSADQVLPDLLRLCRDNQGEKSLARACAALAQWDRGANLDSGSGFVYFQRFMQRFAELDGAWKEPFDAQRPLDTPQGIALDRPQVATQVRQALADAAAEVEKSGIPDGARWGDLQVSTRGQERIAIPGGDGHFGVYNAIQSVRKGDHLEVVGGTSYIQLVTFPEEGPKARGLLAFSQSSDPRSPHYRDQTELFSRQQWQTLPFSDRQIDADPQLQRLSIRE

[2] = system: HeLa; experiment: toxicity to human HeLa cells – cell-based, 48 h, plate reader, cherry-picks, cytotoxicity control, dose response (AID 504942); format: functional
[3] = system: Streptococcus; experiment: GAS UMAA2166 growth inhibition – luminescence, BacTiterGlo, counter-screen for streptokinase expression inhibitor project, dose response (AID 1915); format: functional, organism-based;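 also: potency for reduction of bacterial viability or growth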
[4] = system: Streptococcus sp. 'group A'; experiment: Streptococcus pyogenes SK(-)GAS viability under kanamycin – luminescence, BacTiterGlo, confirmation, counter-screen for streptokinase expression inhibitor project, dose response (AID 1900); format: functional, organism-based
[5] = HEK-293T cell viability reduction – luminescence, B-cell screen hits, cytotoxicity control for BCR NF-kB inhibitor project, dose response (AID 489021); format: functional, cell-based;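 also: HEK-293T cells carrying an NF-kB luciferase reporter; cells exposed to compound for about 14 hours before viability readout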
[6] = biological target: T2, Streptokinase A (Streptococcus pyogenes serotype M1, UniProt P10520); experiment: viability-normalized secreted streptokinase activity reduction – plasminogen activation absorbance, OD405, dose response (AID 1914); format: functional, Streptococcus pyogenes M1 GAS;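 also: secreted streptokinase activity via plasminogen activation per viability signal from cell pellet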
T2 sequence (P10520 whole entry): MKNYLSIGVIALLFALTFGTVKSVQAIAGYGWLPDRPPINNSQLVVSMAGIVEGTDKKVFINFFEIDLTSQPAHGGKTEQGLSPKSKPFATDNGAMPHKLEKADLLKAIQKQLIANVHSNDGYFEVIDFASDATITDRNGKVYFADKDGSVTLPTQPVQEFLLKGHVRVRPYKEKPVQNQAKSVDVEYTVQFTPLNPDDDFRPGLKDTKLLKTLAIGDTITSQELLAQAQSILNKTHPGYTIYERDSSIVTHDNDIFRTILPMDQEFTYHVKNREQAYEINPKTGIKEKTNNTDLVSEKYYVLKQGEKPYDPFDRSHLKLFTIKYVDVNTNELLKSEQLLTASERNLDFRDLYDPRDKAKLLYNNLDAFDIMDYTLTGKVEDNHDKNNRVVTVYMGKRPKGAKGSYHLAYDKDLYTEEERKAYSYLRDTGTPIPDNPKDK

[7] = Mcl1-dependent cancer cell viability – HMC-1-8 cells, luminescence, dry powder, selectivity assay for A1 inhibitor project, dose response (AID 504415); format: functional, cell-based; settings: Homo sapiens
[8] = biological target: DNA topoisomerase (Yersinia pestis, UniProt A0A2S9PM60); experiment: Yersinia topoisomerase I cleavage product accumulation – biochemical, cherry-pick, dose response (AID 588525)
[9] = biological target: Beta-2 adrenergic receptor (Homo sapiens, UniProt P07550); experiment: ADRB2 activation measured by internalization – cell-based, FAP fluorogen, flow cytometry, cherry pick 1, dose response (AID 588763); format: functional
[10] = biological target: Protein disulfide-isomerase (Homo sapiens, UniProt P07237); experiment: inhibition of PDI-driven insulin aggregation – biochemical, turbidity, absorbance, cherry-picked samples, dose response (AID 602350); format: functional
[11] = biological target: T3, Hexokinase HKDC1 (Homo sapiens, UniProt Q2TB90); experiment: SAR analysis of small molecule inhibitors of hexokinase domain containing I (HKDC1). [Related pubchem assays (depositor defined):AID493160, AID493190]; format: functional
T3 sequence (Q2TB90 whole entry): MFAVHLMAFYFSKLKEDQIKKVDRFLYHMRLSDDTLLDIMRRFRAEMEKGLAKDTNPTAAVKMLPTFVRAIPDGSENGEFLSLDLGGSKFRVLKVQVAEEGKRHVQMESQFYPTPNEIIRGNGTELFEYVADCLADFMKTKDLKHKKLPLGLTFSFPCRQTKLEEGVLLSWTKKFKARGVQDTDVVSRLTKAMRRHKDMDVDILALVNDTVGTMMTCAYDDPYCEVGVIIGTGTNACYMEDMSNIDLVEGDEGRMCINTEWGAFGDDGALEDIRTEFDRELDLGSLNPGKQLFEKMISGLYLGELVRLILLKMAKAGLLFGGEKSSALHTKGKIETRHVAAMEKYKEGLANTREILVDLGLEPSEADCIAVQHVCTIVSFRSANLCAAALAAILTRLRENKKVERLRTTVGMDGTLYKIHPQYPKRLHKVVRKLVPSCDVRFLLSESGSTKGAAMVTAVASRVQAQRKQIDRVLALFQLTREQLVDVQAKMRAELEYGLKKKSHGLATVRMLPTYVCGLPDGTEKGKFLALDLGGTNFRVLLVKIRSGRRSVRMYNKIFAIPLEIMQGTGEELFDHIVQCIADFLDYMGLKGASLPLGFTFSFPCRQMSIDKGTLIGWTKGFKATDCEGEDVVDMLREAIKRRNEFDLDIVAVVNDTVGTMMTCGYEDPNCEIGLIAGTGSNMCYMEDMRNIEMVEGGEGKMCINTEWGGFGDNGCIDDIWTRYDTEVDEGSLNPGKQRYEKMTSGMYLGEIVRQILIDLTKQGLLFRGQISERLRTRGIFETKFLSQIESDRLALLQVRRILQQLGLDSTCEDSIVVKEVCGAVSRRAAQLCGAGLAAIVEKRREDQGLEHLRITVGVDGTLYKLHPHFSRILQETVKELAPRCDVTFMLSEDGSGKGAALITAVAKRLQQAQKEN

[12] = biological target: T4, Hexokinase-1 (Homo sapiens, UniProt P19367); experiment: SAR analysis of small molecule inhibitors of hexokinase domain containing I (HKDC1) in the hexokinase 1 selectivity assay. [Related pubchem assays (depositor defined):AID493160, AID493190]; format: functional
T4 sequence (P19367 whole entry): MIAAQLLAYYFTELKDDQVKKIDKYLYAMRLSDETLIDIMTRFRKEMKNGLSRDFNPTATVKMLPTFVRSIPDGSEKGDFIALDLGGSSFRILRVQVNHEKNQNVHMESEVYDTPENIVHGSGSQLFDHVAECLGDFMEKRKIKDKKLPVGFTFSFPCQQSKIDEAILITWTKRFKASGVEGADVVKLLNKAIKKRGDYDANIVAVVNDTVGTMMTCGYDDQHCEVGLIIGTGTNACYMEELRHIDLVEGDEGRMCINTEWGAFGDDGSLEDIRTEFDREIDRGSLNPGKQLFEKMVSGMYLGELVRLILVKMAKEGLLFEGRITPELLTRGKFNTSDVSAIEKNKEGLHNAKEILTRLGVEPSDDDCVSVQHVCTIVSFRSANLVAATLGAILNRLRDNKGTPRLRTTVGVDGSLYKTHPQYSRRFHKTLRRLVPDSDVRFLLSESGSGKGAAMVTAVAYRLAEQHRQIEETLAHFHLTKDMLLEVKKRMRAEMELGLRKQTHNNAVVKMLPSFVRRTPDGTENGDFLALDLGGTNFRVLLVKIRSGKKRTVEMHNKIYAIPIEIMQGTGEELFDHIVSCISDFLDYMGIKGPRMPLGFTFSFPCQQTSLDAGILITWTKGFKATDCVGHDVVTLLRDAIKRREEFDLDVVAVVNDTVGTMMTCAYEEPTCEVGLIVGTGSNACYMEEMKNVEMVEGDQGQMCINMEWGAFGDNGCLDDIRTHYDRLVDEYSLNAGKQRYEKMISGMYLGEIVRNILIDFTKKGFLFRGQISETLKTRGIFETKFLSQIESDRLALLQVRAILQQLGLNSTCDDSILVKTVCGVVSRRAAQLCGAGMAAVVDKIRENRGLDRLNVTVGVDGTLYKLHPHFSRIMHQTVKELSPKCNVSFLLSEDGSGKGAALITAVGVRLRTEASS

[13] = system: Jurkat; experiment: SAR Analysis of small molecule inhibitors of T-cell specific antigen receptor-induced NF-kB activation in a Jurkat cell line using a luminescence assay - Set 2. [Related pubchem assays (depositor defined):AID435003, AID435012, AID465]; format: functional, cell-based; settings: Homo sapiens
[14] = system: HEK293; experiment: HEK293T cell viability loss, resazurin readout – resazurin fluorescence, cytotoxicity control for NF-kB activator project, SAR follow-up (AID 493251); format: functional, cell-based; settings: Homo sapiens
[15] = system: HEK293; experiment: SAR Analysis of small molecule inhibitors of T-cell specific antigen receptor-induced NF-kB activation in a HEK-293T cell line using a luminescence assay - Set 2. [Related pubchem assays (depositor defined):AID435003, AID435012, AID489026]; format: functional, cell-based; settings: Homo sapiens
[16] = biological target: T5, Endoribonuclease toxin MazF (Escherichia coli K-12, UniProt P0AE70); experiment: substrate-only fluorescence increase artefacts – biochemical, single-stranded RNase substrate, counter-screen for MazEF activator project, dose response (AID 588502); format: functional
[17] = biological target: Galanin receptor type 2 (Homo sapiens, UniProt O43603); experiment: Dose Response cell-based high-throughput screening assay to identify antagonists of galanin receptor 2 (GALR2). [Related pubchem assays: 828, 866 ]; format: functional
[18] = biological target: T5, Endoribonuclease toxin MazF; experiment: activation of MazEF endoribonuclease cleavage – biochemical, fluorescence, single-stranded RNA substrate, uHTS hits, dose response (AID 588481); format: functional
[19] = Luminescence Cell-Based Dose Response Follow up to Identify Inhibitors of Platelet Dense Granule Release. [Related pubchem assays (depositor defined):AID1663, AID1678, AID2398]; format: functional
[20] = blockers of SFLLRN-triggered platelet ATP secretion – cell-based, human platelets, luminescence, dry powder, dose response (AID 493100); format: functional

T5 sequence (P0AE70 whole entry): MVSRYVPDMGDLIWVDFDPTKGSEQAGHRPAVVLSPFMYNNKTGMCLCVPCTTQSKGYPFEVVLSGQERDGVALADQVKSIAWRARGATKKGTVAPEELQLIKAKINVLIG
Chain of Beta-2 adrenergic receptor (P07550 whole entry): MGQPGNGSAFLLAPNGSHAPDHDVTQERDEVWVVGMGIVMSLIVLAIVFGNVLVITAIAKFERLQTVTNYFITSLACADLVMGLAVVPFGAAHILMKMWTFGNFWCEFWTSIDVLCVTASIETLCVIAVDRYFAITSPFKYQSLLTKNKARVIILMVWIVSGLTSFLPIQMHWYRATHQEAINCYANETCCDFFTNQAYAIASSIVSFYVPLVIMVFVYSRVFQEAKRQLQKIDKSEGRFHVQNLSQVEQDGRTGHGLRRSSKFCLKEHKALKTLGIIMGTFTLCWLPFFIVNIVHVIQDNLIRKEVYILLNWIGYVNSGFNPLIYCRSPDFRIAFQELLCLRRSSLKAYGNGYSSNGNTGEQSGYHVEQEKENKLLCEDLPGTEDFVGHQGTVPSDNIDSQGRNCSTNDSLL
Chain of DNA topoisomerase (A0A2S9PM60 whole entry): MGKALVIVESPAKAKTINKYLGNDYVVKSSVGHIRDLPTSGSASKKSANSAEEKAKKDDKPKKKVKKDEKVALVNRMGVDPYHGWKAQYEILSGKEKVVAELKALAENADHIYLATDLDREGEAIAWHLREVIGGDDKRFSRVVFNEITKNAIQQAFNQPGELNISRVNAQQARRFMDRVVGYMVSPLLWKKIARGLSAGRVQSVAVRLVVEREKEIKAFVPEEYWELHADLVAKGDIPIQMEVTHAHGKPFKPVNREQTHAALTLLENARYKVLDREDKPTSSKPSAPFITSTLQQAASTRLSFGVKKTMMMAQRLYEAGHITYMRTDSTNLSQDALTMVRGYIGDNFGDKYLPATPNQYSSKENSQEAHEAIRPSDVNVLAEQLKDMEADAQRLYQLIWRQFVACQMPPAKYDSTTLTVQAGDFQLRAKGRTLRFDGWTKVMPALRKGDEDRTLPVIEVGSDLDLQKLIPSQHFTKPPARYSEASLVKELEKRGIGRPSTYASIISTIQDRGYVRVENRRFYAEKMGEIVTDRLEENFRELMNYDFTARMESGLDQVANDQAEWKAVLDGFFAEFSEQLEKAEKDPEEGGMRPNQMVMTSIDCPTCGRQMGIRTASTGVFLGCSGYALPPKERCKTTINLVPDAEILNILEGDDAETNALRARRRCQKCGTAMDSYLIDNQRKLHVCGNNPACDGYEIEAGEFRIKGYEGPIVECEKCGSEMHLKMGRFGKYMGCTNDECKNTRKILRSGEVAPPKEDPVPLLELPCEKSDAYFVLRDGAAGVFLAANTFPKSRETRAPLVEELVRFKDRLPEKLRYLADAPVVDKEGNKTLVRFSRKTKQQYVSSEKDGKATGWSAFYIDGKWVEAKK
Chain of Protein disulfide-isomerase (P07237 whole entry, the tested form may be a part): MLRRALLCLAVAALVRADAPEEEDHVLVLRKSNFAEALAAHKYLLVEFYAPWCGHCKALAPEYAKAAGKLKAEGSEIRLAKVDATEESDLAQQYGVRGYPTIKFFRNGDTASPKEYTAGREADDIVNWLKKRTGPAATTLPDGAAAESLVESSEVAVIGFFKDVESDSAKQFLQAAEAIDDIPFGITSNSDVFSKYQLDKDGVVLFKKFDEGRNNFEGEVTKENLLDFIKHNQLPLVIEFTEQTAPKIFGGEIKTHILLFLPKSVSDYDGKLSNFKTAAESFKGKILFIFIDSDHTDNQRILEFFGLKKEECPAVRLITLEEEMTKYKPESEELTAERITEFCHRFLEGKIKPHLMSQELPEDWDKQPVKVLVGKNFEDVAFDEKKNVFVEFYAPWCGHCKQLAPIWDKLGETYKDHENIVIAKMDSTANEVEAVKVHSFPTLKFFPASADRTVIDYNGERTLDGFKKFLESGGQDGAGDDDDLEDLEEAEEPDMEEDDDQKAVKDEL
Chain of Galanin receptor type 2 (O43603 whole entry): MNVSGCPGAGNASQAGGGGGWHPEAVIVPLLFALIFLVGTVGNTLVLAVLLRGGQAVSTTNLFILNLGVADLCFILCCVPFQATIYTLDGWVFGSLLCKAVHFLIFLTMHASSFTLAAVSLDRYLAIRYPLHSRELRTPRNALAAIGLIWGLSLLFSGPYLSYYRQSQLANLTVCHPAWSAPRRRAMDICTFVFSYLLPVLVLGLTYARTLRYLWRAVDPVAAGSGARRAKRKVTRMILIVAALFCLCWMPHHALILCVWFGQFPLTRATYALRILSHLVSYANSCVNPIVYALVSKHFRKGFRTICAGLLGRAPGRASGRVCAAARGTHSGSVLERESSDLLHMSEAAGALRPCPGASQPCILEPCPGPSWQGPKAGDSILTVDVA

Cc1cc(NC(=O)Nc2ccccc2[N+](=O)[O-])no1
AC50 [1]: 2.02 µM (active)
AC50 [2]: > 380 µM (inactive)

O=C(Oc1cccc(/C=N/Nc2nc(Nc3ccccc3)nc(N3CCOCC3)n2)c1)c1ccco1
EC50 [3]: 16 µM (active)
EC50 [4]: 9.28 µM (active)
IC50 [5]: > 80 µM (inactive)
EC50 [6]: > 150 µM (not active)
AC50 [7]: 56.1 µM (active)

O=C(C[C@H]1C/C=C\CC[C@H](Cc2ccc(F)cc2)C(=O)O[C@@H](c2ccccc2)CNC1=O)N[C@@H](CO)Cc1ccccc1
AC50 [8]: > 38 µM (inactive)

CCc1ccc(CN2CCC(Oc3ccc(C(=O)N4CCCC4)cc3)CC2)cc1
EC50 [9]: 0.936 µM (active)

C[C@@H]1CN([C@H](C)CO)C(=O)c2cccc(NS(C)(=O)=O)c2O[C@H]1CN(C)Cc1ccc(Oc2ccccc2)cc1
AC50 [10]: 18.8 µM (active)

O=c1c2ccccc2nc(/C=C/c2cccc(O)c2)n1Cc1ccccc1
IC50 [11]: > 80 µM (inactive)
IC50 [12]: > 80 µM (inactive)

CCCCNC(=O)CCc1nc(-c2ccc(C(C)(C)C)cc2)no1
IC50 [13]: > 79 µM (inactive)
IC50 [14]: > 80 µM (inactive)
IC50 [15]: 14.5 µM (active)

O=C(Cc1cccs1)Nc1cccc(-c2nc3cc4ccccc4cc3[nH]2)c1
EC50 [16]: > 99 µM (inactive)
EC50 [3]: 14.9 µM (active)
IC50 [17]: > 42 µM (not active)
EC50 [4]: 4.51 µM (active)
EC50 [18]: > 99 µM (inactive)
EC50 [6]: > 150 µM (not active)

CC(=O)Nc1ccc(/C(C)=N/NC(=O)C2CCCC2)cc1
EC50 [19]: 11.3 µM (active)
AC50 [20]: 126 µM (active)
